Experimental data reported in PMC6466937, “Evaluation of In Vitro Antioxidant and Antidiabetic Activities of Aristolochia longa Extracts” (Evidence-based Complementary and Alternative Medicine : eCAM, 2019).

Target: T1, β-Galactosidase from Aspergillus oryzae (Aspergillus oryzae, UniProt Q2UCU3)
T1 construct: gene lacA; commercial secreted enzyme (Sigma-Aldrich), no catalogue number
T1 sequence (Q2UCU3 19-1005): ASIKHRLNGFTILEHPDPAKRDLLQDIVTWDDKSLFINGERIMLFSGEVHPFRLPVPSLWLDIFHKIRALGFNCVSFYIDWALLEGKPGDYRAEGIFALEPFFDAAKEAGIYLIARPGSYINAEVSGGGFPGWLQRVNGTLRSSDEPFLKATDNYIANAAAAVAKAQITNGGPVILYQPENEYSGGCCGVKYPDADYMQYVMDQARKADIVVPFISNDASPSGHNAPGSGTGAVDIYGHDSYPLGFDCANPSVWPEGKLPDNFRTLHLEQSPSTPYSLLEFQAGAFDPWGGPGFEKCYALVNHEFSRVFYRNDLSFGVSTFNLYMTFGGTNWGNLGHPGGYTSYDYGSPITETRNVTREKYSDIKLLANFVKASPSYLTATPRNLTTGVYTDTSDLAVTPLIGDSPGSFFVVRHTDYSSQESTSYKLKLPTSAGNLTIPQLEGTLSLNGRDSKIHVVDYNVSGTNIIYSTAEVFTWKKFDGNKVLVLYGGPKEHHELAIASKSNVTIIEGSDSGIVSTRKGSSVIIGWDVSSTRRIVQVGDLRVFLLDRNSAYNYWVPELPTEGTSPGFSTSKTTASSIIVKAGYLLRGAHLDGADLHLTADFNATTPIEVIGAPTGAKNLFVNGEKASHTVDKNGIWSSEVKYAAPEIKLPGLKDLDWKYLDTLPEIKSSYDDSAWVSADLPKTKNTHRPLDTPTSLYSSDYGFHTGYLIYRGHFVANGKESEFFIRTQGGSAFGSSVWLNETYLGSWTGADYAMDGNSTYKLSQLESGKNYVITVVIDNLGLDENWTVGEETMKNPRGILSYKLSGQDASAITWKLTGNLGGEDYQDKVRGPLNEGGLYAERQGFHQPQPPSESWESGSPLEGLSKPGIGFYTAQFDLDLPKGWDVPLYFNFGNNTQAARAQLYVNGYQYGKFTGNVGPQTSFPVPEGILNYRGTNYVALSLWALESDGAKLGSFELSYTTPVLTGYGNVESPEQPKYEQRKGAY
Assay: 2-nitrophenyl beta-D-galactopyranoside hydrolysis, absorbance […] nm
Format: biochemical
Settings: read-out: β-Galactosidase inhibition / IC50 (mg/mL) (converted)

## O=c1c(O)c(-c2ccc(O)c(O)c2)oc2cc(O)cc(O)c12 [Quercetin]
  IC50: 817 µM
